Read-outs that look alike come from different tables or passages of the source.
Legend:
SARS-CoV-2 nsp13 [1] = target: T1, SARS-CoV-2 nsp13 (Severe acute respiratory syndrome coronavirus 2, UniProt P0DTD1); assay: SARS-CoV-2 nsp13 unwinding-associated activity (fluorescence, BSA-TCEP); format: biochemical; details: SARS-CoV-2 nsp13-associated unwinding activity, from dose-response curves
SARS-CoV-2 nsp13 [2] = target: T1, SARS-CoV-2 nsp13; assay: SARS-CoV-2 nsp13 ATPase-associated activity (Biomol Green, BSA-TCEP); format: biochemical; details: for IC50: SARS-CoV-2 nsp13-associated ATPase activity, from dose-response curves
[3] = Cellular toxicity assay (GFP signal as viability); format: cell-based; details: African green monkey; Vero cells; read-out: CC50, concentration required to reduce Vero cells viability by 50%
Procedure: Vero E6-green fluorescent protein (GFP) cells (Janssen Pharmaceutical were maintained in Dulbecco’s modified Eagle’s medium (DMEM, Gibco) supplemented with 10% v/v foetal beef serum (FBS, Gibco), 0.075% Sodium Bicarbonate (7.5% solution, Gibco) and 1X Pen-strep (Euroclone) and kept under 5% CO2 on 37 ◦C. The cells were seeded at 10 000 cells/well in 96-well black cell-treated plates (PerkinElmer). The following day, cells were incubated with the control compounds at different concentrations. Compound was dissolved in 0.1% DMSO. Seventy-two hours post infection the GPF signal, as direct index of cellular viability, was quantified by measuring the total-well fluorescence with a Victor 3 multiplate reader (PerkinElmer) set to excitation and emission wavelengths of 485 and 535 nm, respectively.
The percentage of induced cytopathic effects (CPE) was calculated considering the mock as 100% of cell viability, and the readout from empty wells as blank. The compound half-maximal cytopathic concentration (CC50), was determined via non-linear regression by using on Prism 9 v. 9.4.1 software (GraphPad) the built-in function dose-response inhibition, log-concentration-normalized response. Experimental points represent the average and standard deviation of at least two sets of independent triplicates.

SARS-CoV-2 nsp13 [4] = target: T1, SARS-CoV-2 nsp13; assay: Incubation-dependent potency of 5c on nsp13 (inhibition type); format: biochemical; details: for IC50: read-out: IC50 at time-point
SARS-CoV-2 nsp13 [5] = target: T1, SARS-CoV-2 nsp13; details: cited from earlier work
SARS-CoV-2 = details: cited from earlier work
SARS-CoV-2 nsp13 [6] = target: T1, SARS-CoV-2 nsp13; details: SARS-CoV-2 nsp13-associated ATPase activity; cited from earlier work
MERS-CoV = details: cited from earlier work
HCoV229E = system: HCoV229E; design: method as in PMID 37562607; details: cited from earlier work
Vero E6-GFP cells = details: cited from earlier work
[7] = read-out: Activity in enzyme assay IC50 Unwinding BSA-TCEP
[8] = read-out: Activity in enzyme assay IC50 ATPase BSA-TCEP
[9] = read-out: EC50 antiviral activity
[10] = SARS-CoV-2 nsp13-associated unwinding activity, read-out: IC50 unwinding
[11] = SARS-CoV-2 infected cells, read-out: EC50 SARS-CoV-2 replication

For CC(C)c1ccc(Cn2cc(/C=C/C(=O)/C=C(\O)C(=O)O)c3ccccc32)cc1 [5c], the IC50 (SARS-CoV-2 nsp13 [1]; [7]) was 4.73 ± 0.5 µM, the IC50 (SARS-CoV-2 nsp13 [2]; [8]) was 1.8 ± 0.19 µM and the “higher ATPase inhibition in respect to 4” value (SARS-CoV-2 nsp13 [2]; ratio of IC50 values) was 7 fold. The CC50 at 72 h [3] was > 100 µM, the IC50 (SARS-CoV-2 nsp13 [4]; 1 min after activation of the reaction with the substrate) was 0.76 µM and the IC50 (SARS-CoV-2 nsp13 [4]; 5 min after activation of the reaction with the substrate) was 1.64 µM. For the same compound, the IC50 (SARS-CoV-2 nsp13 [4]; 10 min after activation of the reaction with the substrate) was 2.75 µM, the IC50 (SARS-CoV-2 nsp13 [4]; 15 min after activation of the reaction with the substrate) was 2.94 µM and the IC50 (SARS-CoV-2 nsp13 [4]; 20 min after activation of the reaction with the substrate) was 2.76 µM. The “nature of the inhibition” value (SARS-CoV-2 nsp13 [4]; from time-increased IC50 values) was “non-covalent/reversible” and the “effect of extended pre-incubation of compound and enzyme on inhibitory potency” value (SARS-CoV-2 nsp13 [4]; pre-incubation extended to +20 min and +50 min at RT) was “did not lead to an increase of the inhibitory potency”.
In the case of CCOC(=O)/C(O)=C/C(=O)c1cn(Cc2ccc(F)cc2)c2ccccc12 [8d, Ethyl (Z)-4-(1-(4-fluorobenzyl)-1H-indol-3-yl)-2-hydroxy-4-oxobut-2-enoate], the IC50 (SARS-CoV-2 nsp13 [1]; Activity in enzyme assay IC50 Unwinding BSA-TCEP) is reported as 1.73 ± 0.53 µM, the IC50 (SARS-CoV-2 nsp13 [2]; Activity in enzyme assay IC50 ATPase BSA-TCEP) is reported as 8.7 ± 0.53 µM and the CC50 at 72 h [3] is reported as > 100 µM.
In the case of CC(C)=Cn1cc(/C=C/C(=O)/C=C(\O)C(=O)O)c2ccccc21 [9c, (2Z,5E)-2-hydroxy-6-(1-(2-methylprop-1-en-1-yl)-1H-indol-3-yl)-4-oxohexa-2,5-dienoic acid], the IC50 (SARS-CoV-2 nsp13 [1]; [7]) is reported as 1.56 ± 0.16 µM, the IC50 (SARS-CoV-2 nsp13 [2]; [8]) is reported as > 30 µM and the remaining activity at 30 µM (SARS-CoV-2 nsp13 [2]; measured at 30 µM, read-out: Percentage of enzymatic residual activity (ATPase)) is reported as 98.6%. For the same compound, the CC50 at 72 h [3] was > 100 µM.
In the case of C=CCn1c(CSc2ccccc2[N+](=O)[O-])n[nH]c1=S [SSYA10-001], the IC50 (SARS-CoV-2 nsp13 [5]; SARS-CoV-2 nsp13, read-out: IC50 vs unwinding) is listed as 7.5 µM and the EC50 (SARS-CoV-2; [9]) is listed as 81 µM.
For CC(C)=CCc1c(O)cc(O)c2c(=O)cc(-c3ccc(O)cc3)oc12 [compound 2, licoflavone C], the EC50 (SARS-CoV-2; [9]) is given as > 100 µM.
For CC(C)=CCn1cc(/C=C/C(=O)/C=C(\O)C(=O)O)c2ccccc21 [compound 3], the IC50 (SARS-CoV-2 nsp13 [5]; [10]) is given as 9.51 µM, the IC50 (SARS-CoV-2 nsp13 [6]) is given as 26.8 µM and the EC50 (SARS-CoV-2; [11]) is given as 4.54 µM. The EC50 (MERS-CoV) was 0.33 µM, the EC50 (HCoV229E) was 0.54 µM and the CC50 (Vero E6-GFP cells) was > 264 µM.
In the case of O=C(/C=C(\O)C(=O)O)/C=C/c1cn(Cc2ccccc2)c2ccccc12 [compound 4], the IC50 (SARS-CoV-2 nsp13 [5]; [10]) is given as 12.7 ± 4.9 µM, the IC50 (SARS-CoV-2 nsp13 [6]) is given as 12.8 ± 1.3 µM and the EC50 (SARS-CoV-2; [11]) is given as 1.03 ± 0.24 µM. The EC50 (MERS-CoV) was 6.32 µM, the EC50 (HCoV229E) was 1.83 µM and the CC50 (Vero E6-GFP cells) was > 264 µM.

Reference: article PMC12344683, “N-alkyl and N-benzyl indoles are anti-SARS-CoV-2 agents and nsp13 inhibitors” (Journal of Enzyme Inhibition and Medicinal Chemistry, 2025)
